Patent US4866057A, “4-substituted 10-cyanomethylenepyrrolo[4,3-e]-benzazepines” (BASF Aktiengesellschaft, priority 1987, dated 1989)
pKi: −log10 of the molar value. Where two headings read alike, the source gives them in different places.

Key:
[1] = system: orientation hypermotility; test: Sedative action (orientation hypermotility, mouse); type: in vivo, female NMRI mice; settings: oral; for ED50: 0.5 h, 50% decrease in orientation hypermotility vs control, measured from 30 min after dosing for 30 min, read-out: Sedative action mouse ED 50; for sedative action compared with clozapine: in words, action of reference clozapine
Description: 4 to 8 groups each comprising 3 female NMRI mice receive the substances by oral administration. The orientation hypermotility induced by a new environment is determined photoelectrically 30 min after the administration of the substance for a period of 30 min.
The ED50 is determined as the dose which brings about a decrease in the orientation hypermotility of 50% compared with placebo-treated control animals.

[2] = system: L-5-Hydroxytryptamine (L-5-HTP); test: L-5-HTP antagonism (serotonin antagonism); type: in vivo, rats; settings: oral, rat; for ED50: 1 h before L-5-HTP (316 mg/kg i.p.), 50% mean reduction in score, read-out: Antiserotoninergic action rat ED; for antiserotoninergic action compared with clozapine: in words, action of reference clozapine
Description: 2. L-5-HTP antagonism (serotonin antagonism)
L-5-Hydroxytryptamine (L-5-HTP), a serotonin prodrug, causes in rats (316 mg/kg i.p.) a state of agitation which is characterized by signs such as head-shaking, tremor and movements of the forepaws. The animals are observed for 1 h after administration of L-5-HTP, and the signs are scored every 10 min. The test substances are administered orally 1 h before L-5-HTP; n/dose=6. The ED50 is calculated as the dose which brings about a mean reduction in the score of a control group by 50%.

[3] = system: physostigmine; test: Anticholinergic action (protection from lethal physostigmine); type: in vivo, female NMRI mice; settings: oral, mouse, 30 min before physostigmine 0.825 mg/kg s.c.; protects 50% from death; read-out: Anticholinergic mouse ED 50
Description: 3. Anticholinergic action
Groups of 10 female NMRI mice receive physostigmine in a lethal dose (0.825 mg/kg) subcutaneously. The test substances are administered orally 30 min before the physostigmine administration. The ED50 is determined as the dose of substance which protects 50% of the animals from death due to physostigmine.

[4] = molecular target: T1, dopamine D1 receptor (Bos taurus, UniProt Q95136); test: Affinity to dopamine D1 receptor, competitive assay, 3H-SCH 23390; type: binding, bovine
T1 construct: bovine nucleus caudatus membranes; from tissue; host or cells: bovine caudate nucleus membranes
Description: (§1) 4. In vitro determination of the affinity to dopamine D1 and D2 receptors by means of competitive assays
(§2) The non-specific binding was determined using 10 μM (+)-butaclamol or using 1 μM haloperidol. After incubation at 30° C. for 60 min, the mixtures were filtered through glass fiber filters (GF/B, Whatman) and the amount of radioligand retained on the filter was determined by liquid scintillation measurement.

[5] = molecular target: T2, dopamine D2 receptor (Bos taurus, UniProt P20288); test: Affinity to dopamine D2 receptor, competitive assay, 3H-spiperon; type: binding, bovine
T2 construct: bovine nucleus caudatus membranes; from tissue; host or cells: bovine caudate nucleus membranes
Description: as §1, §2

[6] = bovine nucleus caudatus membranes, pH 7.4, 30° C., 60 min, 1 nM radioligand, read-out: Affinity to D1 receptor, Inhibition of 3H-SCH 23 390 binding, Ki
[7] = bovine nucleus caudatus membranes, pH 7.4, 30° C., 60 min, 0.2 nM radioligand, read-out: Affinity to D2 receptor, Inhibition of 3H-spiperon binding, Ki

T2 sequence (P20288 whole entry): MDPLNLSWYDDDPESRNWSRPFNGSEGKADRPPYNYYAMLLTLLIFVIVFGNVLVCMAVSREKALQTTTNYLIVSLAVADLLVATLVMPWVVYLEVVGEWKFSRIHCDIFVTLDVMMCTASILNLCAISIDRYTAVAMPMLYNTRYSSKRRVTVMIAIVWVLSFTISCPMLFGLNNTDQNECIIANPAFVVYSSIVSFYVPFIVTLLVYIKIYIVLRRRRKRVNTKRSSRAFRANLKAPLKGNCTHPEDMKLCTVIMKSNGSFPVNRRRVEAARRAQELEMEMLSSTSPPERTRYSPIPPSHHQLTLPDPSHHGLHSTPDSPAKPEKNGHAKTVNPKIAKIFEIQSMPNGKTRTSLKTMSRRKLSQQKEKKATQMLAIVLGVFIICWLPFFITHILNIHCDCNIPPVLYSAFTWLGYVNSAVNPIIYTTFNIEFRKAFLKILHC
T1 sequence (Q95136 whole entry): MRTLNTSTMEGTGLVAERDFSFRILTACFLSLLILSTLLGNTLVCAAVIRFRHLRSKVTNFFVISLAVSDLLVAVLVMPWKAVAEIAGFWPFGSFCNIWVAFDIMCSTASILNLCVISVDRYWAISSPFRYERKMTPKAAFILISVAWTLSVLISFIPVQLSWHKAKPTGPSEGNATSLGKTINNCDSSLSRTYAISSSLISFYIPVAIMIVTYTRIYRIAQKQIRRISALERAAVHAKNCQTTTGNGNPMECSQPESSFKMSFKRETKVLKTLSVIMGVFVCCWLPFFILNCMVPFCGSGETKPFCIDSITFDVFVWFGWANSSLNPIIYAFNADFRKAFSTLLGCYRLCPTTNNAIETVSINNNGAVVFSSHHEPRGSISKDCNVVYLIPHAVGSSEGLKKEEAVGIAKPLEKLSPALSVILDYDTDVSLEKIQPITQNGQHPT

Which results are given for `CN1CCN(C2=Nc3cc(Cl)ccc3Nc3ccccc32)CC1` [Clozapine, clozapine, reference compound]?
ED50 [1]: 3.8 mg/kg; ED50 [2]: 6.3 mg/kg

`CN1CCN(C2=Nc3ccccc3/C(=C/C#N)c3cn(C)cc32)CC1` [Example 1a, 10-Cyanomethylene-2-methyl-4-(4-methyl-1-piperazinyl)pyrrolo[4,3-e]benzazepine] was tested. Which ED50 [1] did it give?
Its ED50 is 2.96 mg/kg.

What about the “sedative action compared with clozapine” value [1] of the same compound?
The value was “reached or exceeded”.

And the ED50 [2]?
Its ED50 is 1.18 mg/kg.

What about the “antiserotoninergic action compared with clozapine” value [2] of the same compound?
The value was “reached or exceeded”.

What about the ED50 [3] of the same compound?
The ED50 was over 21.5 mg/kg.

What about the pKi [4] of the same compound?
Its pKi is 7.98.

And the pKi [5]?
The pKi was about 5.70.

Which ED50 [1] does the source give for `CN1CCN(C2=Nc3cc(Cl)ccc3C(=CC#N)c3cn(C)cc32)CC1` [Example 3, (E),(Z)-7-Chloro-10-cyanomethylene-2-methyl-4-(4-methyl-1-piperazinyl)pyrrolo[4,3-e]benzazepine] here?
Its ED50 is 0.82 mg/kg.

What about the “sedative action compared with clozapine” value [1] of the same compound?
Its value is “reached or exceeded”.

What about the ED50 [2] of the same compound?
Its ED50 is 0.2 mg/kg.

And the “antiserotoninergic action compared with clozapine” value [2]?
Its value is “reached or exceeded”.

And the ED50 [3]?
Its ED50 is 17.5 mg/kg.

And the pKi [4, 6]?
The pKi was 7.70.

And the pKi [5, 7]?
Its pKi is about 6.00.

What does the source list for `CN1CCN(C2=Nc3cc(Cl)ccc3/C(=C/C#N)c3cn(C)cc32)CC1` [Example 3a, (E)-7-Chloro-10-cyanomethylene-2-methyl-4-(4-methyl-1-piperazinyl)pyrrolo[4,3-e]benzazepine]?
ED50 [1]: 0.67 mg/kg; ED50 [2]: 0.29 mg/kg

`CN1CCN(C2=Nc3ccccc3C(=CC#N)c3cn(Cc4ccccc4)cc32)CC1` [Example 9, (E),(Z)-10-Cyanomethylene-2-benzyl-4-(4-methyl-1-piperazinyl)pyrrolo[4,3-e]benzazepine] was tested. Which ED50 [1] did it give?
The ED50 was 29.8 mg/kg.

What about the ED50 [2] of the same compound?
The ED50 was 46.4 mg/kg.

And the ED50 [3]?
The ED50 was over 46.4 mg/kg.

What about the pKi [4, 6] of the same compound?
Its pKi is 8.47.

And the pKi [5, 7]?
The pKi was about 6.00.

Which results are given for `CN1CCN(C2=Nc3cc(Cl)ccc3C(=CC#N)c3cn(Cc4ccccc4)cc32)CC1` [Example 11, (E),(Z)-7-Chloro-2-benzyl-10-cyanomethylene-4-(4-methyl-1-piperazinyl)pyrrolo[4,3-e]benzazepine]?
ED50 [1]: 35 mg/kg; ED50 [3]: > 100 mg/kg; pKi [4, 6]: 7.89; pKi [5, 7]: ~6.00

How did the ED50 [1] turn out when `CCN1CCN(C2=Nc3ccccc3C(=CC#N)c3cn(C)cc32)CC1` [Example 12, (E),(Z)-10-Cyanomethylene-2-methyl-4-(4-ethyl-1-piperazinyl)pyrrolo[4,3-e]benzazepine] was run?
Its ED50 is 4.7 mg/kg.

What about the ED50 [2] of the same compound?
The ED50 was 3.3 mg/kg.

And the “antiserotoninergic action compared with clozapine” value [2]?
The value was “reached or exceeded”.

And the ED50 [3]?
Its ED50 is 16.7 mg/kg.

What about the pKi [4, 6] of the same compound?
The pKi was 7.68.

What about the pKi [5, 7] of the same compound?
The pKi was about 5.70.
